Patent US6992169B2, “Carrier based drug delivery system” (Cyclacel Limited, priority 1998, dated 2006)

Experiments:
HT29 = test: In vitro cytotoxic activity, inhibition of cell proliferation, ATP bioluminescence (ViaLight); type: cell-based, human
Protocol: (§1) This compound (abbreviated ‘MTX-Pen’ in the tables below) was evaluated for its ability to inhibit cell proliferation of normal (immortalised) human cells (HaCaT cells, Tables 1 & 2) and a human colorectal cancer cell line (HT29, Table 3).
(§2) Assay procedure—Cells were seeded into 96-well plates at 2,500 cells/well in DMEM with 10% FCS and antibiotics. After overnight incubation, test compound dilutions in cell medium were prepared and were added to the cells. Samples were taken 1, 2, 3, and 4 days after compound addition. Nucleotide Releasing Reagent (LumiTech ViaLight kit) was added in order to lyse the cells and release ATP. After incubation at room temperature (5 min), the mixtures were transferred to opaque 96-well plates and stored at −20° C. until analysis. After loading plates into a luminometer (Lucy 1, Labtech International), ATP Monitoring Reagent (20 μL/well, LumiTech ViaLight kit) was added to each well successively and light intensity was measured immediately. Six readings were taken per sample. Each assay point was established using six replicates and appropriate controls. […] Statistically significant results in the tables below are printed in bold face.
(§3) This compound (abbreviated ‘MTX-Pen’ in tables below) was evaluated for its ability to inhibit cell proliferation of normal (immortalised) human cells (HaCaT cells, Tables 1 & 2) and a human colorectal cancer cell line (HT29, Table 3).
(§4) Assay procedure—Cells were seeded into 96-well plates at 2,500 cells/well in DMEM with 10% foetal calf serum and antibiotics. After overnight incubation, test compound dilutions in cell medium were prepared and were added to the cells. Samples were taken 1, 2, 3, and 4 days after compound addition. Nucleotide Releasing Reagent (LumiTech ViaLight kit) was added in order to lyse the cells and release ATP. After incubation at room temperature (5 min), the mixtures were transferred to opaque 96-well plates and stored at −20° C. until analysis. After loading plates into a luminometer (Lucy 1, Labtech International), ATP Monitoring Reagent ([…], LumiTech ViaLight kit) was added to each well successively and light intensity was measured immediately. Six readings were taken per sample. Each assay point was established using six replicates and appropriate controls.

HaCaT cells = test: as above; type: cell-based, human
Protocol: as §1, §2, §3, §4

[1] = Table 1, HaCaT, Dose 0.2 μM, Day 1
[2] = Table 1, HaCaT, Dose 0.2 μM, Day 2
[3] = Table 1, HaCaT, Dose 0.2 μM, Day 3
[4] = Table 1, HaCaT, Dose 0.2 μM, Day 4
[5] = Table 1, HaCaT, Dose 0.5 μM, Day 1
[6] = Table 1, HaCaT, Dose 0.5 μM, Day 2
[7] = Table 1, HaCaT, Dose 0.5 μM, Day 3
[8] = Table 1, HaCaT, Dose 0.5 μM, Day 4
[9] = Table 1, HaCaT, Dose 1.5 μM, Day 1
[10] = Table 1, HaCaT, Dose 1.5 μM, Day 2
[11] = Table 1, HaCaT, Dose 1.5 μM, Day 3
[12] = Table 1, HaCaT, Dose 1.5 μM, Day 4
[13] = Table 1, HaCaT, Dose 4.4 μM, Day 1
[14] = Table 1, HaCaT, Dose 4.4 μM, Day 2
[15] = Table 1, HaCaT, Dose 4.4 μM, Day 3
[16] = Table 1, HaCaT, Dose 4.4 μM, Day 4
[17] = Table 1, HaCaT, Dose 13.3 μM, Day 1
[18] = Table 1, HaCaT, Dose 13.3 μM, Day 2
[19] = Table 1, HaCaT, Dose 13.3 μM, Day 3
[20] = Table 1, HaCaT, Dose 13.3 μM, Day 4
[21] = Table 1, HaCaT, Dose 40.0 μM, Day 1
[22] = Table 1, HaCaT, Dose 40.0 μM, Day 2
[23] = Table 1, HaCaT, Dose 40.0 μM, Day 3
[24] = Table 1, HaCaT, Dose 40.0 μM, Day 4

Compound: CN(Cc1cnc2nc(N)nc(N)c2n1)c1ccc(C(=O)N[C@@H](CCC(=O)O)C(=O)O)cc1 [MTX, methotrexate]
- % Cell Death (HT29; Table 3, HT 29, Dose 0.1 μM, Day 1): 6%
- % Cell Death (HT29; Table 3, HT 29, Dose 0.1 μM, Day 2): −17%
- % Cell Death (HT29; Table 3, HT 29, Dose 0.1 μM, Day 3): 52%
- % Cell Death (HT29; Table 3, HT 29, Dose 0.1 μM, Day 4): 84%
- % Cell Death (HT29; Table 3, HT 29, Dose 0.2 μM, Day 1): 10%
- % Cell Death (HT29; Table 3, HT 29, Dose 0.2 μM, Day 2): −5%
- % Cell Death (HT29; Table 3, HT 29, Dose 0.2 μM, Day 3): 54%
- % Cell Death (HT29; Table 3, HT 29, Dose 0.2 μM, Day 4): 85%
- % Cell Death (HT29; Table 3, HT 29, Dose 0.5 μM, Day 1): 15%
- % Cell Death (HT29; Table 3, HT 29, Dose 0.5 μM, Day 2): −12%
- % Cell Death (HT29; Table 3, HT 29, Dose 0.5 μM, Day 3): 52%
- % Cell Death (HT29; Table 3, HT 29, Dose 0.5 μM, Day 4): 88%
- % Cell Death (HT29; Table 3, HT 29, Dose 1.5 μM, Day 1): 17%
- % Cell Death (HT29; Table 3, HT 29, Dose 1.5 μM, Day 2): −5%
- % Cell Death (HT29; Table 3, HT 29, Dose 1.5 μM, Day 3): 48%
- % Cell Death (HT29; Table 3, HT 29, Dose 1.5 μM, Day 4): 84%
- % Cell Death (HT29; Table 3, HT 29, Dose 4.4 μM, Day 1): −14%
- % Cell Death (HT29; Table 3, HT 29, Dose 4.4 μM, Day 2): −4%
- % Cell Death (HT29; Table 3, HT 29, Dose 4.4 μM, Day 3): 58%
- % Cell Death (HT29; Table 3, HT 29, Dose 4.4 μM, Day 4): 86%
- % Cell Death (HaCaT cells; [1]): 7%
- % Cell Death (HaCaT cells; [2]): 11%
- % Cell Death (HaCaT cells; [3]): 79%
- % Cell Death (HaCaT cells; [4]): 93%
- % Cell Death (HaCaT cells; [5]): −4%
- % Cell Death (HaCaT cells; [6]): 31%
- % Cell Death (HaCaT cells; [7]): 75%
- % Cell Death (HaCaT cells; [8]): 93%
- % Cell Death (HaCaT cells; [9]): 13%
- % Cell Death (HaCaT cells; [10]): 31%
- % Cell Death (HaCaT cells; [11]): 77%
- % Cell Death (HaCaT cells; [12]): 94%
- % Cell Death (HaCaT cells; [13]): 4%
- % Cell Death (HaCaT cells; [14]): 24%
- % Cell Death (HaCaT cells; [15]): 77%
- % Cell Death (HaCaT cells; [16]): 93%
- % Cell Death (HaCaT cells; [17]): 22%
- % Cell Death (HaCaT cells; [18]): 35%
- % Cell Death (HaCaT cells; [19]): 82%
- % Cell Death (HaCaT cells; [20]): 92%
- % Cell Death (HaCaT cells; [21]): 4%
- % Cell Death (HaCaT cells; [22]): 15%
- % Cell Death (HaCaT cells; [23]): 79%
- % Cell Death (HaCaT cells; [24]): 92%
- % Cell Death (HaCaT cells; Table 2, HaCaT, Dose 0.1 μM, Day 1): 19%
- % Cell Death (HaCaT cells; Table 2, HaCaT, Dose 0.1 μM, Day 2): 7%
- % Cell Death (HaCaT cells; Table 2, HaCaT, Dose 0.1 μM, Day 3): 45%
- % Cell Death (HaCaT cells; Table 2, HaCaT, Dose 0.1 μM, Day 4): 65%
- % Cell Death (HaCaT cells; Table 2, HaCaT, Dose 0.2 μM, Day 1): 3%
- % Cell Death (HaCaT cells; Table 2, HaCaT, Dose 0.2 μM, Day 2): 41%
- % Cell Death (HaCaT cells; Table 2, HaCaT, Dose 0.2 μM, Day 3): 94%
- % Cell Death (HaCaT cells; Table 2, HaCaT, Dose 0.2 μM, Day 4): 86%
- % Cell Death (HaCaT cells; Table 2, HaCaT, Dose 0.5 μM, Day 1): 0%
- % Cell Death (HaCaT cells; Table 2, HaCaT, Dose 0.5 μM, Day 2): 59%
- % Cell Death (HaCaT cells; Table 2, HaCaT, Dose 0.5 μM, Day 3): 96%
- % Cell Death (HaCaT cells; Table 2, HaCaT, Dose 0.5 μM, Day 4): 91%
- % Cell Death (HaCaT cells; Table 2, HaCaT, Dose 1.5 μM, Day 1): 14%
- % Cell Death (HaCaT cells; Table 2, HaCaT, Dose 1.5 μM, Day 2): 67%
- % Cell Death (HaCaT cells; Table 2, HaCaT, Dose 1.5 μM, Day 3): 96%
- % Cell Death (HaCaT cells; Table 2, HaCaT, Dose 1.5 μM, Day 4): 91%
- % Cell Death (HaCaT cells; Table 2, HaCaT, Dose 4.4 μM, Day 1): 21%
- % Cell Death (HaCaT cells; Table 2, HaCaT, Dose 4.4 μM, Day 2): 70%
- % Cell Death (HaCaT cells; Table 2, HaCaT, Dose 4.4 μM, Day 3): 97%
- % Cell Death (HaCaT cells; Table 2, HaCaT, Dose 4.4 μM, Day 4): 92%

Compound: H-Ala-Arg-Gln-Ile-Lys-Ile-Trp-Phe-Gln-Asn-Arg-Arg-Met-Lys-Trp-Lys-Lys-OH (H-ARQIKIWFQNRRMKWKK-OH) [Pen, the free vector]
- % Cell Death (HaCaT cells; [1]): 26%
- % Cell Death (HaCaT cells; [2]): 0%
- % Cell Death (HaCaT cells; [3]): −3%
- % Cell Death (HaCaT cells; [4]): 21%
- % Cell Death (HaCaT cells; [5]): 6%
- % Cell Death (HaCaT cells; [6]): −6%
- % Cell Death (HaCaT cells; [7]): −29%
- % Cell Death (HaCaT cells; [8]): −26%
- % Cell Death (HaCaT cells; [9]): 16%
- % Cell Death (HaCaT cells; [10]): −31%
- % Cell Death (HaCaT cells; [11]): 2%
- % Cell Death (HaCaT cells; [12]): −14%
- % Cell Death (HaCaT cells; [13]): 8%
- % Cell Death (HaCaT cells; [14]): −4%
- % Cell Death (HaCaT cells; [15]): −1%
- % Cell Death (HaCaT cells; [16]): 10%
- % Cell Death (HaCaT cells; [17]): 18%
- % Cell Death (HaCaT cells; [18]): 0%
- % Cell Death (HaCaT cells; [19]): −17%
- % Cell Death (HaCaT cells; [20]): −6%
- % Cell Death (HaCaT cells; [21]): 16%
- % Cell Death (HaCaT cells; [22]): −22%
- % Cell Death (HaCaT cells; [23]): 5%
- % Cell Death (HaCaT cells; [24]): 12%
